Experimental data from patent publication US20050209157A1, “Short bioactive peptides and methods for their use” (priority 2001, published 2005).
“Also recorded” adds a separate entry of the source. Where two headings read alike, the source gives them in different places. No end group written: not given here.

Key:
cancer cell lines = assay: Anti-cancer assays, MTT, summary over the cancer cell lines; format: cell-based; conditions: X = preferred
[1] = tested on: hairless rat skin burn wound; assay: In vivo wound healing, TCA chemically induced skin burn wound; conditions: for Epidermal thickening / Fibroblast cells in test area / Inflammatory response area / Leukocyte cells in test area / Wound closure: rat model, TCA burn treated by peptide; for Wound closure: 26 days
From the text: The hairless rat was chosen as a suitable test model. Female hairless rats of 100 to 150 grams weight and 8 to 12 weeks age were used in the study.
As an alternative, 70% trichloroacetic (TCA) dissolved in 70% ethanol was employed to induce the dermal erosion patches. […] As the chemical burn agent, the TCA treatment inflicted on the rats far less trauma and mortality than occurred with the Phenol model.
The experimental Protocol procedure steps were as follows: • 1. The animal was anesthetized (40 mg/kg Phenobarbital). • 2. Color photographs of the animal's back (with six separate peels) were taken before each treatment and daily thereafter. • 3. Rat skin surface was prepared by wiping with 70% ethanol. Filter paper discs (1.1 cm diameter) were soaked in 70% TCA/ethanol. • 4. The discs were placed on the back of the hairless rat for 30 minutes [6 disks providing for 2 control (no peptide treatment) disks and 4 disks for peels to receive peptide treatment.] • 5. After a 30 minute burn the discs were removed. Twenty four hours later, different peptide solutions (1500 ppm in saline) were applied to four peels, and saline was applied to the two control peels. • 6. Peptide solutions (and saline for the controls) were applied to the six wounds with a soft brush each day thereafter. • 7. It took approximately one month for the wounds to heal (complete skin closure with stabilized epidermis), after which the animal was sacrificed. • 8. The treated skin was harvested, section stained with trichrome, and mounted on slides.
The percentage of wound closure for each peel (six sites) was measured each day until the animal was sacrificed. The percentage closure was determined by measuring on the animal photographs the area of the remaining scab relative to the area of the initial scar after the burn. These measurements were made by digitizing and analyzing the peels using the Sigma Plot ProScan 4 program.
This provided a measure of the post-TCA burn treatment of the inflammatory response in each peel site.
The extent of epidermal thickening (hyperkeratosis) at each site was also determined by measurement with the Sigma Plot program applied to the stained section slides of the various wound areas and the normal untreated skin (control) surrounding the peels. At magnifications of 100× to 320×, the microphotographs of the color slides provided a powerful tool for such quantification of the extent of hyperkeratosis evident in each peel.
Treatment of the section slides with selective stains produced identifiable evidence of the presence of both leukocyte and fibroblast cells in the wound areas. This was also quantified by the Sigma Plot program.
The above described animal model and protocols were employed in the testing of approximately 20 of the peptides listed in Table 48 (and other peptides for comparison) as preferred FLAK peptides for wound healing.

[2] = tested on: yeast (Saccharomyces cerevisiae); assay: Antimicrobial assay I, yeast assay in RPMI 1640; format: cell-based; conditions: RPMI 1640 media
in vitro [3] = conditions: human, WI38 normal lung fibroblast cells
P. aeruginosa H774 = format: cell-based, Pseudomonas aeruginosa; conditions: P. aeruginosa H744; nalidixic acid + peptide at ¼ MIC; 0.5 or less = synergy
Summary of the method: (§1)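 Synergy against efflux-mutant strains: two-fold dilutions of nalidixic acid or chloramphenicol tested with peptide held at ¼ of its MIC.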

P. aeruginosa H374 = format: cell-based, Pseudomonas aeruginosa; conditions: for FIC Index: 0.5 or less = synergy
Summary of the method: as §1

P. aeruginosa = format: cell-based, Pseudomonas aeruginosa; conditions: P. aeruginosa H744; MIC of nalidixic acid with peptide at ¼ MIC
Summary of the method: as §1

[4] = tested on: Pseudomonas aeruginosa ATCC 9027; assay: Antimicrobial assay I, MIC by OD measurement; format: cell-based; conditions: for paerug9027 (MIC): 37° C. for 24 hours, absorbance 620 nm
[5] = tested on: Staphylococcus aureus ATCC 6538; assay: Antimicrobial assay I, MIC by OD measurement; format: cell-based; conditions: 37° C. for 24 hours, absorbance 620 nm
PC3 = assay: Anti-cancer assay, MTT, LD50; format: cell-based; conditions: 24 hours with peptide, prostate adenocarcinoma
From the text: (§2) Numbers are LD50 values (μg/mL).

MCF7 = assay: Anti-cancer assay, MTT, LD50; format: cell-based; conditions: MCF7 breast adenocarcinoma line, MTT, 24 hours with peptide
From the text: as §2

SW480 = assay: Anti-cancer assay, MTT, LD50; format: cell-based; conditions: SW480 colon adenocarcinoma line, 24 hours with peptide
From the text: as §2

H1299 = assay: Anti-cancer assay, MTT, LD50; format: cell-based; conditions: 24 hours with peptide, lung large cell carcinoma
From the text: as §2

HeLaS3 = assay: Anti-cancer assay, MTT, LD50; format: cell-based; conditions: 24 hours with peptide, cervical carcinoma
From the text: as §2

BMKC = assay: Anti-cancer assay, MTT, LD50; format: cell-based; conditions: BMKC cloned melanoma line, 24 hours with peptide
From the text: as §2

in vitro [6] = format: cell-based, human; conditions: human, human red blood cells
[7] = tested on: Stapholococcus aureus ATCC 25923; assay: Antimicrobial assay I, modified protocol (tryptic soy broth), MBC; conditions: minimum bactericidal concentration, Table 4
fungal = assay: Presently preferred antifungal peptides, selected from the MIC/MBC data; format: cell-based; conditions: X = preferred
From the text: The peptide's “length” is the number of amino acid residues in the sequence.

[8] = tested on: Pseudomonas aeruginosa ATCC 27853; assay: Antimicrobial assay I, modified protocol (tryptic soy broth), MBC; conditions: minimum bactericidal concentration, Table 4
[9] = tested on: Candida albicans ATCC 10231; assay: Antimicrobial assay I, modified protocol (tryptic soy broth), MFC; conditions: minimum fungicidal concentration, Table 4
[10] = tested on: Escherichia coli ATCC 25922; assay: Antimicrobial assay I, modified protocol (tryptic soy broth), MBC; conditions: minimum bactericidal concentration, Table 4
[11] = tested on: human red blood cells (RBC); assay: in vitro; format: cell-based; conditions: hemolytic assay, concentration at 50% hemolysis, 1 hour at 37° C.
[12] = MTT, 24 hours with peptide, normal fibroblast line
[13] = WI-38 LD50, Table 26, valine substitution
[14] = pH 7, Table 26, valine substitution, read-out: Hemolysis RBC LD50

KWKLFKKALKKLKKALKKAL-NH2 [compound 104]
Anti-cancer (preferred peptide) (cancer cell lines): X (Preferred anticancer peptides can be selected as having LD50 values of less than or equal to about 25 μg/ml)

FAKLLAKALKKAL-NH2 [P102, FAKLLAKALKKAL-NH2]
Epidermal thickening [1]: 50 % of control (TCA only)
Fibroblast cells in test area [1]: 220 % of normal skin
Inflammatory response area [1]: 27 % of healed scar
Leukocyte cells in test area [1]: 370 % of normal skin
Wound closure [1]: 96.7 % of initial wound
WI38 LD50 (WI38; [12]): 73 µg/mL
yeast (MIC or MFC) [2]: 50 mg/L
CC50 at 24 h (in vitro [3]; LD50 WI38, WI38 normal lung fibroblast line, MTT, 24 hours with peptide): 73 mg/L
FIC Index (P. aeruginosa H774): 1.25
MIC Cm-comb. (P. aeruginosa H374; MIC of chloramphenicol with peptide at ¼ MIC): 16 mg/L
MIC Nal-comb. (P. aeruginosa H374; MIC of nalidixic acid with peptide at ¼ MIC): 5000 mg/L
FIC Index (P. aeruginosa H374; chloramphenicol + peptide at ¼ MIC): 1.25
FIC Index (P. aeruginosa H374; nalidixic acid + peptide at ¼ MIC, FIC=0.25+MIC comb/MIC alone): 1.25
MIC Nal-comb. (P. aeruginosa): 624 mg/L
paerug9027 (MIC) [4]: 10 mg/L
staph6538 (MIC) [5]: 5 mg/L
PC3 LD50 (PC3): 66 µg/mL
LD50 MCF7 (MCF7): 60 µg/mL
LD50 SW480 (SW480): 57 µg/mL
H1299 LD50 (H1299): 27 µg/mL
HeLaS3 LD50 (HeLaS3): 43 µg/mL
LD50 BMKC (BMKC): 60 µg/mL
HC50 at 1 h (in vitro [6]; pH 7, hemolytic assay, concentration at 50% hemolysis, 1 hour at 37° C., read-out: LD50): 500 µg/mL

VAKLLAKLAKKVL-NH2 [compound 154]
MBC S. aur A.25923 [7]: >250 mg/L
Anti-fungal (preferred peptide) (fungal): X (Preferred antifungal peptides can be selected as having MIC or MBC values of less than or equal to about 25 μg/ml)
WI38 LD50 (WI38; Table 27): 110 µg/mL
MBC P. aerug A.27853 [8]: 100 mg/L
CC50 at 24 h (in vitro [3]; [13]): 110 mg/L
MFC Candida A.10231 [9]: 25 mg/L
P. aerug (MIC) [4]: 100 mg/L
HC50 at 1 h (in vitro [6]; [14]): 870 µg/mL
HC50 at 1 h (in vitro [6]; pH 7, Table 27, read-out: Hemolysis (LD50)): 450 µg/mL
MBC E. coli A.25922 [10]: 50 mg/L

MPKEKVFLKIEKMGRNIRN-NH2 [P107, reference compound]
rate of wound closure ([1]; hairless rat, full wound closure at 26 days): small advantage in rate of wound closure over the other peptides and no peptide
ability to limit post-TCA burn inflammatory responses ([1]; hairless rat, peptide solutions 1500 ppm in saline, topical daily): superior in this respect
hyperkeratosis (epidermal thickening) ([1]; hairless rat, peptide solutions 1500 ppm in saline, topical daily, listed as SEQ ID NO:71): lowest evidence of hyperkeratosis (epidermal thickening); also recorded: substantially no hyperkeratosis as compared to the TCA burn untreated control
Epidermal thickening [1]: 33 % of control (TCA only)
Fibroblast cells in test area [1]: 420 % of normal skin
Inflammatory response area [1]: 0 % of healed scar
Leukocyte cells in test area [1]: 400 % of normal skin
Wound closure [1]: 100 % of initial wound
WI38 LD50 (WI38; [12]): > (> indicates greater than 1000)
LD50 WI38 (WI38; WI38 normal lung fibroblast line, MTT, 24 hours with peptide): > (> indicates greater than 1000)
yeast (MIC or MFC) [2]: > (> indicates greater than 200 μg/mL)
paerug9027 (MIC) [4]: > (> indicates greater than 200 μg/mL)
staph6538 (MIC) [5]: > (> indicates greater than 200 μg/mL)
PC3 LD50 (PC3): > (> indicates greater than 1000)
LD50 MCF7 (MCF7): > (> indicates greater than 1000)
LD50 SW480 (SW480): > (> indicates greater than 1000)
H1299 LD50 (H1299): > (> indicates greater than 1000)
HeLaS3 LD50 (HeLaS3): > (> indicates greater than 1000)
LD50 BMKC (BMKC): > (> indicates greater than 1000)
LD50 [11]: > (> indicates greater than 1000)

FAKFLAKFLKKAL-NH2 [compound 111]
MBC S. aur A.25923 [7]: 40 mg/L
CC50 at 24 h (in vitro [3]; [13]): 25 mg/L
Anti-cancer (preferred peptide) (cancer cell lines): X (Preferred anticancer peptides can be selected as having LD50 values of less than or equal to about 25 μg/ml)
MFC Candida A.10231 [9]: INACT
HC50 at 1 h (in vitro [6]; [14]): 5 µg/mL
MBC E. coli A.25922 [10]: 30 mg/L

VAKLLAKALKKLL-NH2 [compound 506]
CC50 at 24 h (in vitro [3]; [13]): 75 mg/L
Anti-cancer (preferred peptide) (cancer cell lines): X (Preferred anticancer peptides can be selected as having LD50 values of less than or equal to about 25 μg/ml)
HC50 at 1 h (in vitro [6]; [14]): 120 µg/mL

FAKKLAKLAKKLLAL-NH2 [compound 38]
MBC S. aur A.25923 [7]: 15 mg/L
MBC P. aerug A.27853 [8]: 30 mg/L
CC50 at 24 h (in vitro [3]; [13]): 100 mg/L
Anti-cancer (preferred peptide) (cancer cell lines): X (Preferred anticancer peptides can be selected as having LD50 values of less than or equal to about 25 μg/ml)
HC50 at 1 h (in vitro [6]; [14]): 350 µg/mL
MBC E. coli A.25922 [10]: 15 mg/L

FALALKALKKL-NH2 [compound 165]
MBC S. aur A.25923 [7]: 25 mg/L
Anti-fungal (preferred peptide) (fungal): X (Preferred antifungal peptides can be selected as having MIC or MBC values of less than or equal to about 25 μg/ml)
MBC P. aerug A.27853 [8]: 25 mg/L
CC50 at 24 h (in vitro [3]; [13]): 850 mg/L
MFC Candida A.10231 [9]: 10 mg/L
HC50 at 1 h (in vitro [6]; [14]): 350 µg/mL
MBC E. coli A.25922 [10]: 10 mg/L

VAKALKALLKALKAL-NH2 [compound 501]
CC50 at 24 h (in vitro [3]; [13]): 26 mg/L
Anti-cancer (preferred peptide) (cancer cell lines): X (Preferred anticancer peptides can be selected as having LD50 values of less than or equal to about 25 μg/ml)
HC50 at 1 h (in vitro [6]; [14]): 15 µg/mL

CC[C@H](C)[C@H](N)C(=O)N[C@@H](CC(C)C)C(=O)N1CCC[C@H]1C(=O)N[C@@H](Cc1c[nH]c2ccccc12)C(=O)N[C@@H](CCCCN)C(=O)N[C@@H](Cc1c[nH]c2ccccc12)C(=O)N1CCC[C@H]1C(=O)N[C@@H](Cc1c[nH]c2ccccc12)C(=O)N[C@@H](Cc1c[nH]c2ccccc12)C(=O)N1CCC[C@H]1C(=O)N[C@@H](Cc1c[nH]c2ccccc12)C(=O)N[C@@H](CCCNC(=N)N)C(=O)N[C@@H](CCCNC(=N)N)C(=O)O [compound 91]
Anti-cancer (preferred peptide) (cancer cell lines): X (Preferred anticancer peptides can be selected as having LD50 values of less than or equal to about 25 μg/ml)

KWKLFKKKTKLFKKFAKKLAKKL-OH [compound 81]
Anti-cancer (preferred peptide) (cancer cell lines): X (Preferred anticancer peptides can be selected as having LD50 values of less than or equal to about 25 μg/ml)
